The results in this text go back to article PMC8179358, “An explicitly designed paratope of amyloid-β prevents neuronal apoptosis in vitro and hippocampal damage in rat brain” (Chemical Science, 2020).

This test in a line: Carboxyfluorescein dye leakage from LUVs, Aβ40. The format is biochemical. The procedure:
Smaller Aβ oligomers or protofibrils are more toxic than mature fibrils in AD progression due to their ability to disrupt membranes via pore formation.[37,38] […] To evaluate this, we performed a membrane leakage assay on carboxyfluorescein-loaded large unilamellar vesicles (LUVs).[38] The time required for Aβ40 oligomer and mature fibril formation is 12 h and 72 h, respectively (inferred from ThT assay, black curve, Fig. 2a), which directed us to set up the LUV leakage assay. […] The fluorescence intensity of complete dye release from LUVs by Triton X-100 served as a positive control (100% leakage), and untreated dye-loaded LUVs assisted as a negative control. […]
e. Time-resolved photoluminescence (TRPL) […]
μM. Then, 600 μL of peptide sample was placed in a 1 mL fluorescence cuvette and measure the excited state lifetime on Eddinburg FSP920 Instrument. f. […]
Prior to the analysis, samples were filtered through 0.45 µm PVDF membrane. […] For each sample, the analyses were recorded three times with 11 sub-runs using the multimodal mode. The Z-average diameter was calculated from the correlation function using Malvern technology software. g. […]
h. Carboxyfluorescein dye loaded Large Unilamellar Vesicles (LUVs) Leakage Study For leakage study, peptide and lipids were taken in 1:20 molar ratios, and the dye release was monitored by fluorescence emission. […]

On to “Aβ40: commercially available Aβ40 peptide”, for which the “dye leakage from LUVs” value by setting is: (Aβ40 oligomers (12 h aged), until 100 min, untreated LUVs ∼9%, Triton X-100 = 100%) around 40%; (mature Aβ40 fibrils (72 h), 100 min, peptide:lipid 1:20) around 15%.
